Results: PubChem BioAssay (NCI)
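The compound was tested at five concentrations on cells cultured in 96-well plates, with a 48-hour exposure period. Definition used: TGI = concentration required for complete inhibition of growth.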

Experiments:
Experiment in all cases: growth of human tumour cells (NCI), 48 h
A549 NSCLC = system: A549 NSCLC
HOP-62 NSCLC = system: HOP-62 NSCLC
MDA-MB-231 breast = system: MDA-MB-231 breast
OVCAR-3 ovarian = system: OVCAR-3 ovarian
SNB-75 CNS = system: SNB-75 CNS
SF-295 CNS = system: SF-295 CNS
MDA-N = system: MDA-N
HS 578T breast = system: HS 578T breast
HCC-2998 colon = system: HCC-2998 colon
SF-539 CNS = system: SF-539 CNS
OVCAR-5 ovarian = system: OVCAR-5 ovarian
SK-MEL-28 melanoma = system: SK-MEL-28 melanoma
RXF 393 renal = system: RXF 393 renal
MOLT-4 leukemia = system: MOLT-4 leukemia
T-47D breast = system: T-47D breast
SR leukemia = system: SR leukemia
IGROV1 ovarian = system: IGROV1 ovarian
SK-OV-3 ovarian = system: SK-OV-3 ovarian
M14 melanoma = system: M14 melanoma

Compound	TGI (A549 NSCLC)	TGI (HOP-62 NSCLC)	TGI (MDA-MB-231 breast)	TGI (OVCAR-3 ovarian)	TGI (SNB-75 CNS)	TGI (SF-295 CNS)	TGI (MDA-N)	TGI (HS 578T breast)	TGI (HCC-2998 colon)	TGI (SF-539 CNS)	TGI (OVCAR-5 ovarian)	TGI (SK-MEL-28 melanoma)	TGI (RXF 393 renal)	TGI (MOLT-4 leukemia)	TGI (T-47D breast)	TGI (SR leukemia)	TGI (IGROV1 ovarian)	TGI (SK-OV-3 ovarian)	TGI (M14 melanoma)
CCOC(=O)c1ccc(Nc2nc3cc(C(F)(F)F)ccc3nc2-c2ccccc2)cc1	> 100 µM	61.7 µM	> 100 µM	> 100 µM	39.4 µM	60.6 µM	> 100 µM	84.2 µM	89.5 µM	> 100 µM	> 100 µM	> 100 µM	98 µM	> 10 µM	91.6 µM	> 100 µM	> 100 µM		
O=C1/C(=C/c2cccnc2)C(n2cccc2)c2c(Br)sc(Br)c21 (stereo unspecified)	32.5 µM	7.36 µM	3.3 µM	3.31 µM	3.67 µM	32 µM	4.24 µM	9.66 µM	2.41 µM	9.5 µM	31.9 µM	7.31 µM	4.45 µM	5.34 µM	6.25 µM	6.37 µM	3.38 µM	29.3 µM	4.85 µM
Cc1ccc([N+](=O)[O-])c2c(NCCNC(=O)Cn3ccnc3[N+](=O)[O-])ccnc12	> 100 µM	48.7 µM	> 100 µM	52.6 µM	> 100 µM	43.3 µM	> 100 µM	> 100 µM	> 100 µM	> 100 µM	> 100 µM	> 100 µM	16.5 µM	> 100 µM	> 100 µM	> 100 µM	86.6 µM	59.7 µM	> 100 µM
O=C(O)CN1CCNCCN(CP(=O)(O)O)CC1	> 100 µM	> 100 µM	> 100 µM	> 100 µM	> 100 µM	> 100 µM	> 100 µM	> 100 µM	> 100 µM	> 100 µM	> 100 µM	> 100 µM	> 100 µM	> 100 µM	> 100 µM	> 100 µM	> 100 µM	> 100 µM	> 100 µM
CC(C)=CCC[C@@H](C)C1=C(O)C(Nc2ccccc2Br)=C(C)C(=O)C1=O	44.6 µM	36.8 µM	61.9 µM	35.6 µM	66.2 µM	28.1 µM	27.5 µM	49.3 µM	> 69.9 µM	25.1 µM	41.9 µM	> 80.6 µM	32.9 µM	25.5 µM	66.4 µM	45 µM	37.3 µM	68 µM	29.8 µM
Cc1ccccc1C1CC(=O)CC(c2ccccc2C)C12C(=O)NC(=O)NC2=O (stereo unspecified)	> 100 µM	> 100 µM	> 100 µM	> 100 µM	> 100 µM	> 100 µM	> 82.8 µM	> 100 µM	> 100 µM	> 100 µM	> 100 µM	> 100 µM	> 100 µM	> 100 µM	> 100 µM	> 100 µM	> 100 µM	> 100 µM	> 100 µM
CC(C)/C(Cl)=N\OC(=O)Nc1cccc(F)c1	34.9 µM	> 31.6 µM	31.4 µM	32.4 µM	55.6 µM	> 53.9 µM	29.5 µM	63.2 µM	36.9 µM	35.4 µM	35.1 µM	31.9 µM	31 µM	6.29 µM	61.6 µM	6.6 µM	36.2 µM	35.2 µM	10.8 µM
COC(=O)/C=C/c1ccc2c(c1)CCC2	> 100 µM	> 100 µM	> 100 µM	> 100 µM	91.4 µM	> 100 µM	> 100 µM	> 100 µM	> 100 µM	> 100 µM	> 100 µM	> 100 µM	> 100 µM	> 100 µM	> 100 µM	72.9 µM	> 100 µM	> 100 µM	> 100 µM
OCC(CN1CCCCC1)(CN1CCCCC1)CN1CCCCC1	> 100 µM	> 100 µM	> 100 µM	> 100 µM			> 100 µM	> 100 µM	> 100 µM	> 100 µM	> 100 µM	> 100 µM	> 100 µM	> 100 µM	> 100 µM	> 100 µM	> 100 µM	> 100 µM	> 100 µM
Cc1ccc(/C(O)=C/c2nc3ccccc3oc2=O)cc1	> 100 µM	> 100 µM	> 100 µM	> 100 µM	> 100 µM	> 100 µM	59.3 µM	> 100 µM	> 100 µM	> 100 µM	> 100 µM		> 100 µM	> 100 µM	> 100 µM	> 100 µM	> 100 µM		> 100 µM
O=C(Nc1cc(C(=O)Nc2cccc(S(=O)(=O)O)c2)cc(C(=O)Nc2cccc(S(=O)(=O)O)c2)c1)c1cccc(C(=O)Nc2cc(C(=O)Nc3cccc(S(=O)(=O)O)c3)cc(C(=O)Nc3cccc(S(=O)(=O)O)c3)c2)c1	> 100 µM	> 100 µM	> 100 µM	> 100 µM	> 100 µM	> 100 µM	> 100 µM	> 100 µM	> 100 µM	> 100 µM	> 100 µM	> 100 µM	> 100 µM	> 100 µM	> 100 µM		> 100 µM	> 100 µM	> 100 µM
COc1cc(/C=C2\C[C@H]3[C@@H]4CC=C5C[C@@H](O)CC[C@]5(C)[C@H]4CC[C@]3(C)[C@H]2O)cc(OC)c1OC	> 100 µM	41.3 µM	41.7 µM	88 µM	75.4 µM	22.4 µM	> 100 µM	> 100 µM	> 100 µM	> 100 µM	61.9 µM	> 100 µM	18.3 µM	91.4 µM	72.6 µM		> 100 µM	> 100 µM	61.7 µM
CC(=N/NC(=S)N1CCCCC1)/C(=N\NC(=S)N1CCCCC1)c1ccccc1	4.5 µM	4.43 µM	> 19.8 µM	3.34 µM	3.59 µM	3.82 µM	7.64 µM	4.82 µM	4.48 µM	10.6 µM	3.87 µM	3.94 µM	2.82 µM	> 100 µM	3.99 µM		3.27 µM	3.49 µM	3.64 µM
C#CCOC(=O)c1ccccc1O		> 100 µM	> 100 µM		> 100 µM	> 100 µM	> 100 µM	> 100 µM		> 100 µM	> 100 µM		> 100 µM	> 100 µM	> 100 µM	> 100 µM	> 100 µM	> 100 µM	> 100 µM
OC(c1nc2ccccc2s1)(C(F)(F)F)C(F)(F)F	> 100 µM	> 100 µM	> 100 µM	> 100 µM	> 100 µM	> 100 µM	> 100 µM	> 100 µM	> 100 µM	> 100 µM	> 100 µM	> 100 µM	> 100 µM	> 100 µM	> 100 µM		> 100 µM	> 100 µM	> 100 µM
O=C1CCCCC/C1=C\c1ccc(F)cc1	> 100 µM	> 100 µM	> 100 µM	> 100 µM	> 100 µM	> 100 µM	> 100 µM	> 100 µM	> 100 µM		> 100 µM	> 100 µM		> 100 µM	> 100 µM	> 100 µM	> 100 µM	> 100 µM	> 100 µM
O=C1/C(=C\c2ccc(Cl)cc2Cl)Sc2scc(-c3cccc([N+](=O)[O-])c3)[n+]21	42.3 µM	37.1 µM	25.1 µM	23.4 µM	> 69.8 µM	> 68.9 µM	16.7 µM	> 100 µM	20.5 µM		34.4 µM	59.2 µM	14.6 µM	3.94 µM	57.8 µM	> 100 µM	22.5 µM	> 56.4 µM	19.9 µM
COc1ccccc1C1SCC(=O)N1c1ccc(-n2c(-c3ccccc3)nc3ccccc3c2=O)cc1 (stereo unspecified)	> 100 µM	> 100 µM	> 100 µM	> 100 µM	43.1 µM	> 100 µM	> 100 µM	> 100 µM	> 100 µM	> 100 µM	> 100 µM	> 100 µM		> 100 µM	> 100 µM	> 100 µM	> 100 µM	> 100 µM	
O=[N+]([O-])C(Cl)C(Cl)C(Cl)=C(Cl)Cl (stereo unspecified)	> 100 µM	> 100 µM	34.6 µM	> 56.7 µM	> 72.7 µM	> 100 µM	40.6 µM	67.5 µM	> 56.7 µM	> 70 µM	> 82.2 µM	39 µM	33.7 µM	47.8 µM	47.9 µM		18.3 µM	> 100 µM	19.5 µM
O=c1[nH]nc(Cc2ccccc2)n1/N=C/c1c(O)ccc2ccccc12	> 100 µM		44.2 µM	47.5 µM	79.2 µM	69 µM	> 100 µM	81.1 µM	> 100 µM	42.9 µM			49.6 µM	79.2 µM	77.1 µM	59.9 µM	93.4 µM		
COC(=O)[C@@H]1CN(C(=O)c2ccccc2)C(=O)N1	> 100 µM	> 100 µM	> 100 µM	> 100 µM	> 100 µM	> 100 µM	> 100 µM	> 100 µM		> 100 µM	> 100 µM	> 100 µM	> 100 µM	> 100 µM	> 100 µM	> 100 µM	> 100 µM		> 100 µM
CC1Cc2c(Br)nc(N)nc2NC1=O (stereo unspecified)	> 100 µM	> 100 µM	> 100 µM	> 100 µM	> 100 µM	> 100 µM	> 100 µM	> 100 µM	> 100 µM	> 100 µM	> 100 µM	> 100 µM		> 100 µM	> 100 µM	> 100 µM	> 100 µM	> 100 µM	> 100 µM
COc1cc(N=CN(C)C)c2ncccc2c1	> 100 µM	> 100 µM	> 100 µM	> 100 µM	> 100 µM	> 100 µM	56 µM	> 100 µM		> 100 µM	> 100 µM	> 100 µM	> 100 µM	> 100 µM	> 100 µM	19.3 µM	> 100 µM	> 100 µM	> 100 µM
CC1CN=C(Nc2ccc(F)cc2F)S1 (stereo unspecified)	> 100 µM	> 100 µM	> 100 µM	> 100 µM	> 100 µM	> 100 µM	> 100 µM	> 100 µM	> 100 µM	> 100 µM	> 100 µM	> 100 µM		> 100 µM	> 100 µM	> 100 µM	> 100 µM	> 100 µM	
O=C(/C=C(\O)c1ccc(Cl)cc1)C(=O)N=Nc1c(O)[nH]c2ccc(Br)cc12	> 100 µM	> 100 µM	> 100 µM	95.9 µM	> 100 µM	> 100 µM	> 100 µM	> 100 µM	> 100 µM	> 100 µM	> 100 µM	> 100 µM	> 100 µM	4.85 µM	> 100 µM		> 100 µM	> 100 µM	> 100 µM
C=CCCCC1CCCNC1=O (stereo unspecified)	> 100 µM	> 100 µM	> 100 µM	> 100 µM	> 100 µM	> 100 µM	> 100 µM	> 100 µM	> 100 µM	> 100 µM	> 100 µM	> 100 µM	> 100 µM	> 100 µM	> 100 µM		> 100 µM	> 100 µM	> 100 µM
